According to patent US12679839B2, “Cyclin-dependent kinase 7 (CDK7) non-covalent inhibitors” (JANSSEN PHARMACEUTICA NV, priority 2020, dated 2026):

Test system: RNA polymerase II Serine 5 phosphorylation (Rpb1 CTD), downstream substrate of CDK7
Assay: Imaging-based cellular RNA PolII Ser5 phosphorylation assay in A549 cells
Format: cell-based, human
Conditions: Homo sapiens, A549, 3 h, challenged with compound for 3 hours, read-out: pRNA polII Ser5 (A549) pIC50 (converted)
Excerpt: Dosing curves were fitted using the following equation to obtain IC50: Y=Bottom+(Top−Bottom)/(1+10^((log IC50−X)*Hill slope)) where X=log10 of the compound concentration; top and bottom can be defined by PC and NC respectively. Imaging-Based Cellular RNA PolII Ser5 Phosphorylation Assay
To evaluate inhibition of CDK7 kinase activity, a 384-well automated imaging assay was used. This assay detects Serine 5 phosphorylation on a unique heptapeptide sequence in the C-terminal domain of Rpb1 subunit of RNA polymerase II, the downstream substrate of CDK7. This heptapeptide sequence is repeated up to 52 times in the CTD of Rpb1.
A549 adenocarcinoma human alveolar basal epithelial cells (ATCC, CCL-185), rabbit Phospho-Rpb1 CTD (Ser5) antibody (D9N51 (Cell Signaling Technology)), DMEM (Sigma), Fetal Bovine Serum (Biowest), L-glutamine (Sigma), Penicillin/Streptomycin (Life Technologies), Sodium Pyruvate (Sigma), Hepes (Sigma), poly-D-lysine coated μclear 384 black plates (Greiner), formaldehyde (PolySciences), D-PBS (Sigma), Methanol (Sigma), Alexa Fluor 488 goat anti rabbit IgG secondary antibody (Life Technologies), HCS CellMask™ Deep Red stain (Life Technologies), Hoechst 33258 (Invitrogen).
RNA Polymerase II Serine 5 phosphorylation was detected using a specific rabbit Phospho-Rpb1 CTD (Ser5) antibody. A549 adenocarcinoma human alveolar basal epithelial cells were seeded in 20 μl medium (DMEM supplemented with 1% Fetal Bovine Serum (heat inactivated 30′ 56° C.), 2 mM L-glutamine, 50 U/ml penicillin 50 μg/ml streptomycin, 1 mM sodium pyruvate and 50 mM hepes) at 1000 cells/well and cultured in poly-D-lysine coated μclear 384 black plates for 20 hours at 37° C. and 5% CO2.
After incubation cells were challenged with compound for 3 hours at 37° C. and 5% CO2. DMSO was used as high control and as low control 10 μM of LDC4297 reference compound was used. 40 nl of test compounds and controls were spotted in cell plates using Echo Liquid Handler (Echo 550, Labcyte). Incubation was followed by 20 minutes fixation with 20 μl 10% formaldehyde at room temperature. Medium/formaldehyde solution was removed, plates were washed 3 times with 30 μl D-PBS (w/o Ca^2+ and Ma^2+) and permeabilization was done by adding 20 μl ice cold methanol for 20 minutes. Cells were washed again 3 times with 30 μl D-PBS and 20 μl blocking buffer (25 ml fetal bovine serum in 500 ml D-PBS) was added for 1 hour.
After removing blocking buffer 20 μl 1/1000 primary antibody rabbit. Phospho-Rpb1 CTD (Ser5) antibody was added which binds to the phosphorylated Serine5 of the heptapeptide sequences in the CTD of Rpb1. Primary antibody was removed, and plates were washed 3 times with 30 μl D-PBS followed by addition of 20 μl 1/2000 Alexa Fluor 488 goat anti rabbit IgG secondary antibody for final detection of Phospho-Rpb1 CTD (Ser5) together with 1/5000 HCS CellMask™ Deep Red stain for membrane staining and 1/5000 Hoechst 33258 for nucleus staining. Last, plates were washed 2 times with 30 μl D-PBS and wells were filled with 40 μL D-PBS, plates were sealed (Thermowell sealing tape) and stored at 4° C. until reading. Plates were read with Opera Phenix (Perkin Elmer) with 10× air objective. Data were calculated and analyzed in Phaedra.
IC50 values were calculated using the following formula:
Average value of all HC's and all LC's are used for normalizations. % Effect=100−(sample−LC)/(HC−LC)×100% Control=(sample/HC)×100
A best-fit curve is fitted by a minimum sum of squares method to the plot of % Control vs. compound concentration. From this an IC50 value can be obtained. An estimate of the slope of the plot in terms of the Hill coefficient is also obtained.

SMILES | IC50
[2H]C([2H])([2H])N1CC[C@@H](C(=O)N2Cc3cc(NCc4ccn(C)n4)ncc3C[C@@H]2C)[C@H](c2ccccc2)C1 (single isomer, unassigned) [Compound 178] | 3.72 µM
C[C@@H]1Cc2cnc(Nc3cn(C)nc3C(F)(F)F)nc2CN1C(=O)[C@H]1CCN(C)C[C@@H]1c1ccccc1 [Compound 84] | 1.12 µM
CCN1CC[C@H](C(=O)N2Cc3nc(NC4CCOCC4)ncc3C[C@H]2C)[C@@H](c2ccccc2)C1 (single isomer, unassigned) [Compound 158] | 0.0776 µM
CN1CC[C@H](C(=O)N2Cc3nc(NCc4ccn(C)n4)ncc3[C@@H]3C[C@@H]32)[C@@H](c2ccccc2)C1 [Compound 198] | 0.234 µM
C[C@@H]1Cc2cnc(N[C@H]3COc4ccccc43)nc2CN1C(=O)[C@H]1CCN(C)C[C@@H]1c1ccccc1 (relative stereo) [Compound 17] | 0.363 µM
C[C@@H]1Cc2cnc(Nc3ccnc(C4CC4)c3)nc2CN1C(=O)[C@H]1CCN(C)C[C@@H]1c1ccccc1 [Compound 76] | ~0.0331 µM
C[C@@H]1Cc2cnc(N[C@@H]3COc4ccccc43)nc2CN1C(=O)[C@H]1CCN(C)C[C@@H]1c1ccccc1 (relative stereo) [Compound 18] | 0.49 µM
Cc1nn(C)c(C)c1Nc1ncc2c(n1)CN(C(=O)[C@H]1CCN(C)C[C@@H]1c1ccccc1)[C@H](C)C2 [Compound 81] | 1.35 µM
CC(C)Oc1cccc([C@@H]2CN(C)CC[C@H]2C(=O)N2Cc3nc(NCc4ccn(C)n4)ncc3C[C@H]2C)c1 (relative stereo) [Compound 138a] | > 10 µM
